{"source": "patent US20180051017A1", "about": "“AGENT FOR TREATMENT OF SCHIZOPHRENIA” (Sumitomo Dainippon Pharma Co., Ltd., priority 2002, published 2018)", "test_system": "patients with schizophrenia in the acute exacerbation phase", "assay": "First stage phase II clinical trial, placebo-controlled double-blind: efficacy (BPRS, PANSS, CGI-S/I)", "format": "in vivo, human", "method": "According to the procedures as shown in Table 1 as described below, the placebo-controlled double blind experiment was done on 149 patients with schizophrenia in the acute exacerbation phase at 15 facilities in USA. The efficacy and safeness were studied when SM-13496 at a dose of 40 mg or 120 mg, or a placebo was orally administered once a day for 6 weeks after placebo washout.", "note": "Counter-ions that a name gives are not always drawn.", "data": [{"smiles": "O=C1[C@@H]2[C@@H]3CC[C@@H](C3)[C@@H]2C(=O)N1C[C@@H]1CCCC[C@H]1CN1CCN(c2nsc3ccccc23)CC1", "note": "[SM-13496, (1R,2S,3R,4S)-N-[(1R,2R)-2-[4-(1,2-benzoisothiazol-3-yl)-1-piperazinyl-methyl]-1-cyclohexylmethyl]-2,3-bicyclo[2.2.1]heptanedicarboximide hydrochloride]", "values": [{"measurement": "Reductions in BPRS, CGI-I and CGI-S scores at end of trial compared to placebo", "setting": "40 mg or 120 mg, 6 weeks after the administration", "value": "statistically significant"}, {"measurement": "Responder (BPRS reduction 20% or more, or CGI-I 1 or 2), Number", "setting": "40 mg orally once a day for 6 weeks, 47 subjects, p 0.002 vs placebo", "value": 26}, {"measurement": "BPRS Total Score, change from before administration at end of trial (LOCF), Average (SD)", "setting": "40 mg orally once a day for 6 weeks, 47 subjects, p 0.014 vs placebo", "value": "−10.0"}, {"measurement": "PANSS Total Score, change from before administration at end of trial (LOCF), Average (SD)", "setting": "40 mg orally once a day for 6 weeks, 47 subjects, p 0.063 vs placebo", "value": "−14.1"}, {"measurement": "CGI-I at end of trial, Average (SD)", "setting": "40 mg orally once a day for 6 weeks, n = 47, p 0.013 vs placebo", "value": "3.2 (1.56)"}, {"measurement": "Ratio of responders compared to placebo", "setting": "40 mg- or 120 mg-treated group", "value": "statistically significant difference"}, {"measurement": "BPRS Total Score, change from before administration at end of trial (LOCF), Average (SD)", "setting": "120 mg orally once a day for 6 weeks, 44 subjects, p 0.003 vs placebo", "value": "−11.3 (8.89)"}, {"measurement": "Responder (BPRS reduction 20% or more, or CGI-I 1 or 2), Number", "setting": "120 mg orally once a day for 6 weeks, 44 subjects, p 0.007 vs placebo", "value": 22}, {"measurement": "PANSS Total Score, change from before administration at end of trial (LOCF), Average (SD)", "setting": "120 mg orally once a day for 6 weeks, 44 subjects, p 0.010 vs placebo", "value": "−17.4 (15.70)"}, {"measurement": "CGI-I at end of trial, Average (SD)", "setting": "120 mg orally once a day for 6 weeks, n = 42, p 0.005 vs placebo", "value": "3.0 (1.29)"}, {"measurement": "Reduction in PANSS score at end of experiment compared to placebo", "setting": "120 mg, 6 weeks", "value": "statistically significant"}, {"measurement": "BPRS total score (LOCF) change with time compared to placebo (FIG. 1)", "setting": "SM-13496-treated groups, at 2 weeks or later, p<0.05", "value": "statistically significantly reduced"}]}]}
